#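 Briefly, cells in 96-well plates were exposed to five compound concentrations for 48 h, and endpoints were estimated by linear interpolation. GI50 = concentration required for 50% inhibition of growth.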 The source made the active and inactive calls. No stated cut-off is given here; in the data, active = GI50 up to about 1.1 µM and inactive = higher.
# Legend:
# Test in all cases: NCI tumour cell line growth inhibition, 48 h
# U-251 = system: U-251
# A498 = system: A498
# NCI-H460 = system: NCI-H460
# HT-29 = system: HT-29
# EKVX = system: EKVX
# M14 = system: M14
# UACC-257 = system: UACC-257
# Malme-3M = system: Malme-3M
# OVCAR-3 = system: OVCAR-3
# SN12C = system: SN12C
# SW-620 = system: SW-620
# HCC 2998 = system: HCC 2998
# IGROV-1 = system: IGROV-1
# SK-MEL-2 = system: SK-MEL-2
# SK-MEL-5 = system: SK-MEL-5
# OVCAR-5 = system: OVCAR-5
# KM12 = system: KM12
# SNB-19 = system: SNB-19
# OVCAR-8 = system: OVCAR-8
# CAKI-1 = system: CAKI-1
SMILES,GI50 (U-251),GI50 (A498),GI50 (NCI-H460),GI50 (HT-29),GI50 (EKVX),GI50 (M14),GI50 (UACC-257),GI50 (Malme-3M),GI50 (OVCAR-3),GI50 (SN12C),GI50 (SW-620),GI50 (HCC 2998),GI50 (IGROV-1),GI50 (SK-MEL-2),GI50 (SK-MEL-5),GI50 (OVCAR-5),GI50 (KM12),GI50 (SNB-19),GI50 (OVCAR-8),GI50 (CAKI-1)
CC1=NN2C(c3ccc(C)cc3)=CSC2=NC(C)(C)C1,> 100 µM (inactive),> 100 µM (inactive),> 100 µM (inactive),> 100 µM (inactive),> 100 µM (inactive),> 100 µM (inactive),> 100 µM (inactive),> 100 µM (inactive),> 100 µM (inactive),> 100 µM (inactive),> 100 µM (inactive),> 100 µM (inactive),> 100 µM (inactive),> 100 µM (inactive),> 100 µM (inactive),> 100 µM (inactive),> 100 µM (inactive),> 100 µM (inactive),> 100 µM (inactive),–
CC(=O)NNc1nc(C)c(C(=O)NNC(=O)C(=O)Nc2ccc(Cl)c([N+](=O)[O-])c2)s1,50.9 µM (inactive),–,> 100 µM (inactive),> 100 µM (inactive),> 100 µM (inactive),> 100 µM (inactive),37.4 µM (inactive),71.4 µM (inactive),30.4 µM (inactive),71.8 µM (inactive),32.2 µM (inactive),66.1 µM (inactive),> 100 µM (inactive),> 100 µM (inactive),> 100 µM (inactive),> 100 µM (inactive),88.9 µM (inactive),> 100 µM (inactive),54.8 µM (inactive),> 100 µM (inactive)
CC(NC(=O)C(=O)N/N=C1\C[C@@H](c2ccccc2)Nc2ccccc21)c1ccccc1 (some centres undefined),> 100 µM (inactive),–,> 100 µM (inactive),80.7 µM (inactive),17.1 µM (inactive),> 100 µM (inactive),0.382 µM (active),20.5 µM (inactive),> 100 µM (inactive),1.06 µM (active),> 100 µM (inactive),> 100 µM (inactive),–,53 µM (inactive),–,> 100 µM (inactive),> 100 µM (inactive),> 100 µM (inactive),> 100 µM (inactive),> 100 µM (inactive)
CCC1OC2C(CC=C(C)C)=C3OC(C)(O)C(C)(CC)C(=O)C3=C3OC(=O)C=C1C32 (centres undefined),36 µM (inactive),23.6 µM (inactive),17.4 µM (inactive),–,29.4 µM (inactive),27.7 µM (inactive),26.8 µM (inactive),–,–,–,27.5 µM (inactive),34.8 µM (inactive),–,17.3 µM (inactive),16.5 µM (inactive),65.3 µM (inactive),34.4 µM (inactive),27.4 µM (inactive),–,54.2 µM (inactive)
NCc1c(C(N)=O)ncn1Cc1ccccc1,> 100 µM (inactive),> 100 µM (inactive),> 100 µM (inactive),> 100 µM (inactive),> 100 µM (inactive),> 100 µM (inactive),> 100 µM (inactive),–,> 100 µM (inactive),> 100 µM (inactive),> 100 µM (inactive),> 100 µM (inactive),> 100 µM (inactive),–,> 100 µM (inactive),–,–,> 100 µM (inactive),> 100 µM (inactive),> 100 µM (inactive)
CC(C)(C)c1cc(O)c2c(c1O)C(=O)CCC2,50.7 µM (inactive),40.6 µM (inactive),48 µM (inactive),32.9 µM (inactive),54.8 µM (inactive),34.9 µM (inactive),29.4 µM (inactive),–,25.6 µM (inactive),41.8 µM (inactive),57.8 µM (inactive),36.7 µM (inactive),40.7 µM (inactive),–,18.4 µM (inactive),–,–,32.7 µM (inactive),36.7 µM (inactive),22.5 µM (inactive)
Nc1nc(N)c(-c2ccccc2)c(C(=O)Nc2nccs2)n1,> 100 µM (inactive),–,> 100 µM (inactive),> 100 µM (inactive),> 100 µM (inactive),> 100 µM (inactive),> 100 µM (inactive),> 100 µM (inactive),> 100 µM (inactive),> 100 µM (inactive),> 100 µM (inactive),> 100 µM (inactive),> 100 µM (inactive),> 100 µM (inactive),> 100 µM (inactive),> 100 µM (inactive),> 100 µM (inactive),> 100 µM (inactive),> 100 µM (inactive),> 100 µM (inactive)
Cc1ccc(Nc2nc(C)c(C(/C=C/c3ccc4c(c3)OCO4)=N/Nc3ccc([N+](=O)[O-])cc3[N+](=O)[O-])s2)c([N+](=O)[O-])c1,49.2 µM (inactive),–,41 µM (inactive),50.6 µM (inactive),24.5 µM (inactive),61.7 µM (inactive),53 µM (inactive),65.3 µM (inactive),35.2 µM (inactive),28 µM (inactive),45 µM (inactive),28.6 µM (inactive),62.7 µM (inactive),28 µM (inactive),–,43.9 µM (inactive),24 µM (inactive),83 µM (inactive),70.3 µM (inactive),25.1 µM (inactive)
CO[C@@H]1C[C@H]2[C@@H]3CC[C@H]([C@H](C)COC(C)=O)[C@@]3(C)CC[C@@H]2[C@@]2(C)CC[C@H]3C[C@]312,> 100 µM (inactive),> 100 µM (inactive),> 100 µM (inactive),> 100 µM (inactive),> 100 µM (inactive),> 100 µM (inactive),> 100 µM (inactive),> 100 µM (inactive),> 100 µM (inactive),> 100 µM (inactive),> 100 µM (inactive),> 100 µM (inactive),> 100 µM (inactive),–,> 100 µM (inactive),> 100 µM (inactive),> 100 µM (inactive),> 100 µM (inactive),> 100 µM (inactive),> 100 µM (inactive)
CCCc1c(OC)c(=O)c2c(OC)cc(OC)c3c4c(OC)cc(OC)c5c(=O)c(OC)c(CCC)c(c1c23)c54,16 µM (inactive),19.1 µM (inactive),13.7 µM (inactive),11.4 µM (inactive),11.8 µM (inactive),16.9 µM (inactive),20.7 µM (inactive),–,14.8 µM (inactive),18.6 µM (inactive),17.3 µM (inactive),20.1 µM (inactive),14.8 µM (inactive),22 µM (inactive),10.7 µM (inactive),15.2 µM (inactive),14.6 µM (inactive),19.8 µM (inactive),17.5 µM (inactive),14.6 µM (inactive)
COC(=O)C1=C(C(=O)OC)C2=S(SC3=C2CCCC3)S1 (centres undefined),19.6 µM (inactive),–,28.1 µM (inactive),18.7 µM (inactive),> 100 µM (inactive),24.8 µM (inactive),37.2 µM (inactive),20.1 µM (inactive),16.4 µM (inactive),25.5 µM (inactive),0.467 µM (active),> 100 µM (inactive),85.7 µM (inactive),23.1 µM (inactive),0.378 µM (active),27.4 µM (inactive),20.8 µM (inactive),> 100 µM (inactive),12.9 µM (inactive),20 µM (inactive)
[O-]/[N+](=C\c1ccccc1)[C@H](COCc1ccccc1)c1ccccc1,80.9 µM (inactive),> 100 µM (inactive),> 100 µM (inactive),71 µM (inactive),25.1 µM (inactive),–,> 100 µM (inactive),> 100 µM (inactive),27.6 µM (inactive),–,> 100 µM (inactive),> 100 µM (inactive),> 100 µM (inactive),27.3 µM (inactive),63.1 µM (inactive),> 100 µM (inactive),70.3 µM (inactive),59.8 µM (inactive),> 100 µM (inactive),–
CCOC(=O)c1c(O)cc(=O)[nH]c1N1CCOCC1,> 100 µM (inactive),> 100 µM (inactive),> 100 µM (inactive),> 100 µM (inactive),> 100 µM (inactive),> 100 µM (inactive),> 100 µM (inactive),–,> 100 µM (inactive),> 100 µM (inactive),> 100 µM (inactive),> 100 µM (inactive),> 100 µM (inactive),> 100 µM (inactive),> 100 µM (inactive),> 100 µM (inactive),> 100 µM (inactive),> 100 µM (inactive),> 100 µM (inactive),> 100 µM (inactive)
O=C(/C=C\c1cccc2ccccc12)c1ccc(Cl)cc1Cl,16.4 µM (inactive),> 100 µM (inactive),23.4 µM (inactive),17.9 µM (inactive),36.5 µM (inactive),19.4 µM (inactive),27 µM (inactive),26.7 µM (inactive),20.2 µM (inactive),> 100 µM (inactive),20 µM (inactive),32.4 µM (inactive),39.7 µM (inactive),–,36.7 µM (inactive),24.4 µM (inactive),17.2 µM (inactive),28.8 µM (inactive),18.7 µM (inactive),47.5 µM (inactive)
Cn1nnc2c(C(N)=O)ncn2c1=O [TEMOZOLOMIDE],> 100 µM (inactive),–,> 100 µM (inactive),> 100 µM (inactive),> 100 µM (inactive),> 100 µM (inactive),> 100 µM (inactive),> 100 µM (inactive),> 100 µM (inactive),> 100 µM (inactive),> 100 µM (inactive),> 100 µM (inactive),> 100 µM (inactive),> 100 µM (inactive),> 100 µM (inactive),> 100 µM (inactive),> 100 µM (inactive),> 100 µM (inactive),> 100 µM (inactive),> 100 µM (inactive)

# Reference: ChEMBL document CHEMBL1201862, “PubChem BioAssay data set” (2004)
